Experimental findings from patent publication US10870630B2, “Substituted bicyclic heteroaryl allosteric modulators of nicotinic acetylcholine receptors” (Merck Sharp & Dohme Corp., priority 2016, dated 2020) are described below.

Like-named read-outs stand apart in the source and are kept apart here.

The experiment deals with human α7 nicotinic acetylcholine receptor (α7 nAChR) (Homo sapiens, UniProt P36544). Put plainly: Automated patch-clamp electrophysiology functional assay (Assay A). The class given is cell-based. The settings on record: HEK cell line stably expressing human RIC-3 and human α7, IonFlux HT whole-cell population patch, 40 μM acetylcholine. How it is done: The α7 nAChR positive allosteric modulator (PAM) activity of the present compounds may be tested using assays known in the art. The α7 nAChR PAMs described herein have activities in an automated patch-clamp electrophysiology functional assay as described in the examples. The assay was performed using the IonFlux HT in a whole-cell, population patch configuration. See Golden et al. Assay Drug Dev. Technol. (2011) 9:608-619. The compounds were assessed for their ability to modulate the function of the human […] nAChR stably expressed in a HEK cell line both in the presence, and in the absence of the natural 07 agonist acetylcholine. By performing a series of such measurements at different concentrations, the effective concentration of the α7 nAChR PAMs (EC50) was determined. See Spencer et al. Assay Drug Dev. Technol. (2012) 10:313-324.
Automated patch-clamp electrophysiology was performed using the IonFlux HT (Fluxion Biosciences Inc., San Francisco, Calif.) in the whole-cell, population patch configuration. Test compounds were assessed for their ability to modulate the function of the α7 nicotinic acetylcholine receptor both in the presence, and in the absence of the natural α7 agonist acetylcholine. A HEK cell line stably expressing both human RIC-3 and human α7 (PrecisION hnAChR α7/RIC-3, Eurofins Pharma, St. Charles, Mo.) was cultured in 175 cm^2 triple-layer tissue culture flasks to no more than 90% confluency in DMEM/F-12 growth media supplemented with 10% heat-inactivated fetal bovine serum, 1% non-essential amino acids, 0.625 μg/mL Puromycin, and 400 μg/mL Geneticin. Immediately prior to assay, cells were detached by first aspirating growth media, rinsing with Dulbecco's phosphate buffered saline, and then adding 10 mL of Accutase (Innovative Cell Technologies, San Diego, Calif.) to the flask and then incubating at 37° C. for 5 minutes. Detached cells were then recovered by the addition of 40 mL of CHO-serum-free media supplemented with 25 mM HEPES, and rocked gently in a 50 mL conical tube for 20 minutes prior to patch-clamp assay. After recovery, cells were pelleted by centrifugation at 1,000 RPM for 1 minute in a compact bench top centrifuge; recovery media was aspirated and cells were resuspended in external recording solution (150 mM NaCl, 5 mM KCl, 2 mM CaCl2, 1 mM MgCl2, 10 mM HEPES, 12 mM dextrose) to a density of 5.0×10^6 cells/mL. The cell suspension was added to the cell inlet wells on an IonFlux HT population patch plate which had previously been rinsed and primed with deionized H2O. Test compounds were serially diluted in DMSO and then resuspended to the final test concentration in external recording solution, with, or without 40 μM acetylcholine added to the external recording solution; test compounds were then transferred to the IonFlux HT population patch plate. Internal recording solution (110 mM TrisPO4, 28 mM TrisBase, 0.1 mM CaCl2, 2 mM MgCl2, 11 mM EGTA, 4 mM MgATP) was added to the internal recording solution inlet wells on the IonFlux HT patch plate previously loaded with cells and test compounds, and the plate loaded into the IonFlux HT instrument. A protocol was executed on the IonFlux HT to trap the cells, break into the cells, and establish the whole-cell recording configuration; cells were voltage-clamped at a holding potential of −60 mV for the duration of the experiment, all experiments were conducted at room temperature, and the IonFlux HT injection pressure was 8 psi for solution applications. Upon establishing the whole-cell configuration, external recording solution was perfused into the recording chambers for 120 seconds and then 40 μM acetylcholine was applied for 1 second and immediately washed off with external recording solution for 60 seconds. The 40 μM acetylcholine-evoked α7 current served as the current response to which subsequent test compound effects, in the presence, or in the absence of 40 μM acetylcholine would be quantified relative to. […]
On the technique in general: The patch-clamp technique gives a direct electrical read-out from membranes.

Sequence of human α7 nicotinic acetylcholine receptor (α7 nAChR) (P36544 23-502): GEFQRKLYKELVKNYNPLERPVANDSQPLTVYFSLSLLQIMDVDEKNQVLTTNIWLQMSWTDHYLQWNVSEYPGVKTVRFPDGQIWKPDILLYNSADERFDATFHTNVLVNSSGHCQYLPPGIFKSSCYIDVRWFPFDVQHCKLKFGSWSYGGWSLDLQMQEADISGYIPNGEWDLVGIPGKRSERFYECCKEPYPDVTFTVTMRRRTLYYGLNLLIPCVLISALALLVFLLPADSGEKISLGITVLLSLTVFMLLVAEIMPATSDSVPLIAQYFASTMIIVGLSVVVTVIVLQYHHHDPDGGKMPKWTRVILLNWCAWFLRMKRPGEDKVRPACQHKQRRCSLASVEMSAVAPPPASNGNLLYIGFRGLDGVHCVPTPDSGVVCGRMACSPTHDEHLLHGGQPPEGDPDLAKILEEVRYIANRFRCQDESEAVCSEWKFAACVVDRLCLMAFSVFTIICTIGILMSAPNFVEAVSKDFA

Turning to `CC1(C)[C@H](c2ccc(S(N)(=O)=O)cc2)[C@H]1c1nc2c(o1)CCC2` [Example 11, 4-[(1R,3R)-3-(5,6-Dihydro-4H-cyclopenta[d][1,3]oxazol-2-yl)-2,2-dimethylcyclopropyl]benzenesulfonamide], the EC50 runs as follows: (read-out: α7 nAChR EC50) 2000 nM; (read-out: α7 nAChR Potency) 500 to 5000 nM.
Consider `NS(=O)(=O)c1ccc(C2CC2c2cnc3cc(Cl)cnc3c2)cc1` (racemic) [Example E2, 4-[2-(7-Chloro-1,5-naphthyridin-3-yl)cyclopropyl]benzenesulfonamide], for which, for the setting “read-out: α7 nAChR Potency”, the EC50 lay in the range of 500 to 5000 nM.
On to `NS(=O)(=O)c1ccc([C@H]2C[C@@H]2c2nc3ccc(F)cc3o2)cc1` [Example B7, 4-[(1 S,2S)-2-(6-Fluoro-1,3-benzoxazol-2-yl)cyclopropyl]benzenesulfonamide], for which the EC50 (read-out: α7 nAChR EC50) was found to be 4200 nM and the EC50 (read-out: α7 nAChR Potency) is 500 to 5000 nM.
Take `CC1(C)[C@H](c2ccc(S(N)(=O)=O)cc2)[C@H]1c1nc2ccc(F)cc2o1` [Example B2, 4-[(1R,3R)-3-(6-Fluoro-1,3-benzoxazol-2-yl)-2,2-dimethyl-cyclopropyl]benzenesulfonamide]: the EC50 reads like this: (read-out: α7 nAChR EC50) 300 nM; (read-out: α7 nAChR Potency) 100 to 500 nM.
